From patent US11446287B2, “Compounds and methods for EP300 or CBP modulation and indications therefor” (Opna Immuno-Oncology SA, priority 2019, dated 2022)

Target: T1, Recombinant human CBP containing the bromodomain (CBP-BD (1043-1159)) (Homo sapiens, UniProt Q92793)
T1 construct: Recombinant human CBP bromodomain (CBP-BD (1043-1159)); made in house; host or cells: E. coli BL21-CodonPlus (DE3), modified pET vector
Assay: CBP Alphascreen binding assay
Settings: read-out: CREBBP (CBP) IC50
How it was run: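 Buffer: 50 mM HEPES pH 7.5, 50 mM NaCl, 0.01% BSA, 0.01% Triton X-100, 2 mM DTT. The signal was normalised to plate controls and fitted with a four-parameter curve to give IC50.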

T1 sequence (Q92793 1081-1197): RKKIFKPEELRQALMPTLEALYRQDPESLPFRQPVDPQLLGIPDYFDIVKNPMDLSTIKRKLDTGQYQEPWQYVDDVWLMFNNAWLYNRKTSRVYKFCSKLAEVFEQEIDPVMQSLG

| SMILES | IC50 [nM] |
| --- | --- |
| CCOc1c(F)c(C(=O)O)c(F)c(OCC)c1-c1cn(-c2ccc(F)cc2F)c2ncc(-c3c(C)noc3C)cc12 [P-0296, 4-(1-(2,4-difluorophenyl)-5-(3,5-dimethylisoxazol-4-yl)-1H-pyrrolo[2,3-b]pyridin-3-yl)-3,5-diethoxy-2,6-difluorobenzoic acid] | 0.1 to 1000 |
| CCOc1cc(C(=O)O)c(F)c(OCC)c1-c1cn(-c2ccc(F)cc2F)c2ncc(-c3c(C)noc3C)cc12 [P-0297, 4-(1-(2,4-difluorophenyl)-5-(3,5-dimethylisoxazol-4-yl)-1H-pyrrolo[2,3-b]pyridin-3-yl)-3,5-diethoxy-2-fluorobenzoic acid] | 0.1 to 1000 |
| Cc1noc(C)c1-c1cnc2c(-c3ccccc3)cn(-c3c(OCC(F)(F)F)cc(C(=O)O)cc3OCC(F)(F)F)c2c1 [P-0298, 4-(6-(3,5-dimethylisoxazol-4-yl)-3-phenyl-1H-pyrrolo[3,2-b]pyridin-1-yl)-3,5-bis(2,2,2-trifluoroethoxy)benzoic acid] | 0.1 to 1000 |
| Cc1noc(C)c1-c1cnc2c(c1)c(-c1ccc(C(=O)O)cc1OC(C)C)cn2-c1cnn(CC(C)(C)O)c1 [P-0299, 4-(5-(3,5-dimethylisoxazol-4-yl)-1-(1-(2-hydroxy-2-methylpropyl)-1H-pyrazol-4-yl)-1H-pyrrolo[2,3-b]pyridin-3-yl)-3-isopropoxybenzoic acid] | 0.1 to 1000 |
| Cc1noc(C)c1-c1cnc2c(c1)c(-c1ccc(C(=O)O)cc1OC(C)C)cn2-c1cnc(N2CCC2)nc1 [P-0300, 4-(1-(2-(azetidin-1-yl)pyrimidin-5-yl)-5-(3,5-dimethylisoxazol-4-yl)-1H-pyrrolo[2,3-b]pyridin-3-yl)-3-isopropoxybenzoic acid] | 0.1 to 1000 |
| Cc1noc(C)c1-c1cnc2c(c1)c(-c1ccc(C(=O)O)cc1OC(C)C)cn2[C@H]1CCOC1 [P-0301, (S)-4-(5-(3,5-dimethylisoxazol-4-yl)-1-(tetrahydrofuran-3-yl)-1H-pyrrolo[2,3-b]pyridin-3-yl)-3-isopropoxybenzoic acid] | 0.1 to 1000 |
| Cc1noc(C)c1-c1cnc2c(c1)c(-c1ccc(S(C)(=O)=O)cc1OC(C)C)cn2-c1ccccc1 [P-0302, 4-(3-(2-isopropoxy-4-(methylsulfonyl)phenyl)-1-phenyl-1H-pyrrolo[2,3-b]pyridin-5-yl)-3,5-dimethylisoxazole] | 0.1 to 1000 |
| CCCn1nc(C(=O)O)c(N)c1-c1cn(-c2ccc(F)cc2F)c2ncc(-c3c(C)noc3C)cc12 [P-0303, 4-amino-5-(1-(2,4-difluorophenyl)-5-(3,5-dimethylisoxazol-4-yl)-1H-pyrrolo[2,3-b]pyridin-3-yl)-1-propyl-1H-pyrazole-3-carboxylic acid] | 0.1 to 1000 |
| CCCn1nc(C(=O)O)c(NCC)c1-c1cn(-c2ccc(F)cc2F)c2ncc(-c3c(C)noc3C)cc12 [P-0304, 5-(1-(2,4-difluorophenyl)-5-(3,5-dimethylisoxazol-4-yl)-1H-pyrrolo[2,3-b]pyridin-3-yl)-4-(ethylamino)-1-propyl-1H-pyrazole-3-carboxylic acid] | 0.1 to 1000 |
| Cc1nnn(C)c1-c1cnc2c(c1)c(-c1ccc(C(=O)O)cc1OC(F)(F)F)cn2CC/C=C/C1CC1 [P-0305, (E)-4-(1-(4-cyclopropylbut-3-en-1-yl)-5-(1,4-dimethyl-1H-1,2,3-triazol-5-yl)-1H-pyrrolo[2,3-b]pyridin-3-yl)-3-(trifluoromethoxy)benzoic acid] | 0.1 to 1000 |
| Cc1noc(C)c1-c1cnc2c(c1)c(-c1ccc(C(=O)O)cc1OCC(F)F)cn2-c1ccncc1Cl [P-0306, 4-(1-(3-chloropyridin-4-yl)-5-(3,5-dimethylisoxazol-4-yl)-1H-pyrrolo[2,3-b]pyridin-3-yl)-3-(2,2-difluoroethoxy)benzoic acid] | 0.1 to 1000 |
| Cc1noc(C)c1-c1cnc2c(c1)c(-c1ccc(C(=O)O)cc1OC(F)(F)F)cn2-c1ccccc1Cl [P-0307, 4-(1-(2-chlorophenyl)-5-(3,5-dimethylisoxazol-4-yl)-1H-pyrrolo[2,3-b]pyridin-3-yl)-3-(trifluoromethoxy)benzoic acid] | 0.1 to 1000 |
| Cc1noc(C)c1-c1cnc2c(c1)c(-c1ccc(C(=O)O)cc1OC(F)(F)F)cn2-c1ccccc1C1CC1 [P-0308, 4-(1-(2-cyclopropylphenyl)-5-(3,5-dimethylisoxazol-4-yl)-1H-pyrrolo[2,3-b]pyridin-3-yl)-3-(trifluoromethoxy)benzoic acid] | 0.1 to 1000 |
| Cc1noc(C)c1-c1cnc2c(c1)c(-c1ccc(C(=O)O)cc1OC(F)(F)F)cn2-c1ccccc1C#N [P-0309, 4-(1-(2-cyanophenyl)-5-(3,5-dimethylisoxazol-4-yl)-1H-pyrrolo[2,3-b]pyridin-3-yl)-3-(trifluoromethoxy)benzoic acid] | 0.1 to 1000 |
| Cc1cc(C#N)ccc1-n1cc(-c2ccc(C(=O)O)cc2OC(F)(F)F)c2cc(-c3c(C)noc3C)cnc21 [P-0310, 4-(1-(4-cyano-2-methylphenyl)-5-(3,5-dimethylisoxazol-4-yl)-1H-pyrrolo[2,3-b]pyridin-3-yl)-3-(trifluoromethoxy)benzoic acid] | 0.1 to 1000 |
| COc1ccc(-n2cc(-c3ccc(C(=O)O)cc3OC(F)(F)F)c3cc(-c4c(C)noc4C)cnc32)c(F)c1 [P-0311, 4-(5-(3,5-dimethylisoxazol-4-yl)-1-(2-fluoro-4-methoxyphenyl)-1H-pyrrolo[2,3-b]pyridin-3-yl)-3-(trifluoromethoxy)benzoic acid] | 0.1 to 1000 |
| C=C(C)c1ccccc1-n1cc(-c2ccc(C(=O)O)cc2OC(F)(F)F)c2cc(-c3c(C)noc3C)cnc21 [P-0312, 4-(5-(3,5-dimethylisoxazol-4-yl)-1-(2-(prop-1-en-2-yl)phenyl)-1H-pyrrolo[2,3-b]pyridin-3-yl)-3-(trifluoromethoxy)benzoic acid] | 0.1 to 1000 |
| Cc1noc(C)c1-c1cnc2c(c1)c(-c1ccc(C(=O)O)cc1OC(F)(F)F)cn2-c1ccc(C#N)cc1 [P-0313, 4-(1-(4-cyanophenyl)-5-(3,5-dimethylisoxazol-4-yl)-1H-pyrrolo[2,3-b]pyridin-3-yl)-3-(trifluoromethoxy)benzoic acid] | 0.1 to 1000 |
| Cc1noc(C)c1-c1cnc2c(c1)c(-c1ccc(C(=O)O)cc1OC(F)(F)F)cn2-c1ccc(C(C)(C)O)cc1 [P-0314, 4-(5-(3,5-dimethylisoxazol-4-yl)-1-(4-(2-hydroxypropan-2-yl)phenyl)-1H-pyrrolo[2,3-b]pyridin-3-yl)-3-(trifluoromethoxy)benzoic acid] | 0.1 to 1000 |
| Cc1noc(C)c1-c1cnc2c(c1)c(-c1ccc(C(=O)O)cc1OC(F)(F)F)cn2-c1ccsc1 [P-0315, 4-(5-(3,5-dimethylisoxazol-4-yl)-1-(thiophen-3-yl)-1H-pyrrolo[2,3-b]pyridin-3-yl)-3-(trifluoromethoxy)benzoic acid] | 0.1 to 1000 |
